Experimental findings from patent publication US10638754B2, “Methods of attracting Drosophila suzukii using acetoin blend” (The United States of America, as Represented by the …, priority 2016, dated 2020) are described below.

Data set [1] concerns D. suzukii. The data set can be described thus: laboratory two-choice bioassay (treatment vs. blank control). The format is in vivo, Drosophila suzukii. The following applies: for attraction against blank control: 20 μL standard dose, FIG. 3D, 3E; for D. suzukii that made choice: 20 μL, FIG. 3E; for attraction compared to a blank control: 50 μL total volume, N=15, FIG. 3C. The method, then: Laboratory behavioral bioassay: To identify the key components for D. suzukii attraction from the apple juice 7-components blend, a two-choice laboratory bioassay (testing chemical or chemical blend vs. blank control) was used and different combinations of 7-components were evaluated. A complete test apparatus consisted of a plastic cup containing two trap tubes with two lure vials, and a water wick (FIG. 2). The plastic cups were clear, cylindrical polypropylene food containers (946 mL, diameter 114 mm, height 127 mm, Paper Mart, CA). […] The polystyrene trap tubes (95 mm×28.5 mm, same as those used in insect rearing) were labeled “T” for treatment and “B” for blank control, respectively, and were then given the appropriate lure. Lures were either tested chemical/chemical blends (unless otherwise indicated, 20 μL pure individual or blend) loaded onto a small cotton ball held within a small polyethylene lure vial (26 mm×8 mm×1.5 mm thickness, Just Plastic Ltd., Norwich, UK) or blank controls of plain cotton or cotton with solvent (in dose response trials) held in the same type of small lure vial. Each lure vial (open lid) was placed vertically within its trap tube and then the top of each trap tube was sealed with Parafilm® (Pechiney plastics packaging Inc. Menasha, Wis.) leaving only a 4 mm diameter hole in the center to provide an entrance for attracted flies. Each pair of loaded trap tubes were then placed vertically on opposite sides of the test cups with the entrance holes facing upwards. A water wick consisting of a glass scintillation vial (20 mL, VWR, PA) filled with deionized water and plugged with a cotton ball was laid on the bottom of the plastic cup to serve as a water source for the flies during the experiment (FIG. 2). Flies were immobilized using a CO2 stream and 10 were transferred into each testing apparatus. The fully-assembled test apparatus cups were then covered with their ventilated lids. All assays were conducted in a fume hood (120-cm-length×60-cm-width×70-cm-height) using new lures and young flies (2-8 days post-eclosion) under 25° C., 60% RH, and a 16:8 hour (L:D) photoperiod. Mixed-sex D. suzukii were used in bioassays unless stated otherwise, and all flies within and outside treatment and control trap tubes were counted and sexed after 48 hours.
All statistical comparisons were considered for significance at α=0.05.

For data set [2], the system named is D. suzukii. Put plainly: field tests in 2015, baited traps. The format is in vivo, Drosophila suzukii. Conditions: for attraction of D. suzukii in the field: traps, Beltsville, late fall 2015, FIG. 4-6. The method, then:
(§1) Field test: Commercially-available Victor® yellowjacket and flying insect traps (Great Lakes IPM Inc., Vestaburg, Mich.) filled with ˜300 mL of tap water containing a surfactant (Seventh Generation™ natural dish liquid—free and clear, Shoppers Food and Pharmacy, College Park, Md., 4 mL/gallon) as a drowning solution were used in all field tests at the Beltsville Agricultural Research Center-West, Beltsville, Md. (10300 Baltimore Ave., Beltsville, Md.) and at the blueberry field at Butler's Orchard (22222 Davis Mill Rd, Germantown, Md.). Unless otherwise indicated, pure chemical (individual or blend, 1 mL) was loaded onto a cotton ball held within a polypropylene flex micro-centrifuge tube (1.5 mL Eppendorf micro-centrifuge tube, VWR International, Radnor, Pa.) and the lid of the tube was then closed. Tubes filled only with a cotton ball were used as blank controls. The micro-centrifuge tube lure was opened and the lid was snapped into one of four holes on the cap of the Victor® trap, leaving the three remaining holes to serve as entrances for attracted insects. At the Beltsville Agricultural Research Center, traps were hung from the branches of trees on the edge of a small woodlot in blocks consisting of 3-5 treatments and 1 blank control with the traps spaced approximately 5 m apart within a group. The treatments were randomly arranged at different positions within the block and blocks were separated by 10-20 m. At the blueberry field in Butler's Orchard, traps were hung from the branches of blueberry bushes, deployed in blocks consisting of 3 treatments with the traps spaced approximately 5 m apart in a group. The traps were randomly arranged at different positions within the block and blocks were separated by 10-20 m.
The preliminary field tests were conducted at the Beltsville Agricultural Research Center during Oct. 17 to 24, 2014, using six different lures: (1) apple juice blend (treatment 1, 7-components based on apple juice fermentation products (FIG. 1), including isobutanol (IB):2-methyl butanol (2MB):3-methyl butanol (3MB):ethyl hexanoate (EH):acetoin (AT):ethyl octanoate (EO):methyl benzoate (MB) in natural ratios of 4:7:7:0.3:1:0.3:2) (v/v)), (2) raspberry blend (11-components blend, including butyl acetate:hexanal:2-heptanone:3-methyl-butanol:trans-2-hexenal:3-methyl-2-butyl acetate:2-heptanol:hexanol:cis-3-hexenol:6-methyl-5-hepten-2-ol:linalool; obtained from Sigma-Aldrich; mixed into an 11-component blend in natural ratios of 1:36:3:5:10:2:7:8:9:2:8 (v/v), respectively))(Abraham, J. et al., Environ. Entomol., 44 (2): 356-367 (2015)), (3) single component (2-methyl butanol (2MB)), (4) 3-methyl butanol (3MB), (5) binary components blend ((2MB+3MB in 1:1 ratio)), and (6) blank control. In 2015 and 2016, three additional treatments were formulated: treatment 14 ((2-components, including acetoin (AT) and ethyl octanoate (EO) in 1:1 ratio), treatment 16 (single-component, acetoin (AT)), and treatment 17 (single-component, ethyl octanoate (EO)). The rest of the compounds, including ethanol (EtOH) (10 mL) and acetic acid (AA) (1 mL), were added into drowning water and evaluated as individual attractant or synergistic attractive agent whenever needed. In 2016, ACV (300 mL, Essential Everyday®, 5% acidity, Shoppers Food and Pharmacy, College Park, Md.) and a commercially-available Scentry® SWD lure (Great Lakes IPM Inc., Vestaburg, Mich.) were used as standard lures for SWD attraction activity comparison. The amount of AA in the drowning solution in each trap was increased from 1 mL to 15 mL to reach the same acidity (5%) with ACV. In addition, ethyl acetate (EA) (5 mL) and phenethyl alcohol (PE) (1 mL) were added to the drowning solution and evaluated as individual attractants or synergistic attractive agents. Lure dispenser tubes and trap drowning solutions with captured insects were collected and replaced every week unless otherwise indicated. Flies were counted in the laboratory.

The nature of data set [3]: lure release rate from micro-centrifuge tube dispensers. Type of data set: physicochemical. The following applies: for first order rate constant k of desorption: 1 mL loading, micro-centrifuge tube dispenser, fume hood. The method, then:
Lure Release Rate: Release rates of three different kinds of attractants, including acetoin (AT), ethyl octanoate (EO), and a blend of AT and EO (ratio=1:1), were measured under controlled conditions in a laboratory fume hood. Each attractant (1 mL) was loaded onto cotton balls held in open micro-centrifuge tubes (1.5 mL, VWR International, Radnor, Pa.). Fifteen of these micro-centrifuge tubes (five of each tested attractant) were suspended on hooks in a fume hood (temperature: 20-25° C., face velocity: 129 feet/min). Each tube was weighed every 24-h or 72-h (weekend) and the amount of attractant residue was calculated and recorded over a period of two weeks.

In data set [4] the test system is D. suzukii. Put plainly: preliminary field test with baited traps, 2014. Type of data set: in vivo, Drosophila suzukii. The following applies: for Mean ± SD (SWD captured): Oct. 17 to Oct. 24, 2014, 3 replicates; for Total no. SWD captured: Oct. 17 to Oct. 24, 2014, Beltsville, 3 replicates. Here is the method:
as §1
The preliminary field tests were conducted at the Beltsville Agricultural Research Center during Oct. […] In 2015 and 2016, three additional treatments were formulated: treatment 14 ((2-components, including acetoin (AT) and ethyl octanoate (EO) in 1:1 ratio), treatment 16 (single-component, acetoin (AT)), and treatment 17 (single-component, ethyl octanoate (EO)). The rest of the compounds, including ethanol (EtOH) (10 mL) and acetic acid (AA) (1 mL), were added into drowning water and evaluated as individual attractant or synergistic attractive agent whenever needed. In 2016, ACV (300 mL, Essential Everyday®, 5% acidity, Shoppers Food and Pharmacy, College Park, Md.) and a commercially-available Scentry® SWD lure (Great Lakes IPM Inc., Vestaburg, Mich.) were used as standard lures for SWD attraction activity comparison. […] In addition, ethyl acetate (EA) (5 mL) and phenethyl alcohol (PE) (1 mL) were added to the drowning solution and evaluated as individual attractants or synergistic attractive agents. […] Flies were counted in the laboratory.

Data set [5] has as its system D. suzukii. Put plainly: field tests in 2016, baited traps. The format is in vivo, Drosophila suzukii. The following applies: Nov.-Dec. 2016, FIG. 7-11. Here is the method:
(§2) Field test: Commercially-available Victor® yellowjacket and flying insect traps (Great Lakes IPM Inc., Vestaburg, Mich.) filled with ˜300 mL of tap water containing a surfactant (Seventh Generation™ natural dish liquid—free and clear, Shoppers Food and Pharmacy, College Park, Md., 4 mL/gallon) as a drowning solution were used in all field tests at the Beltsville Agricultural Research Center-West, Beltsville, Md. (10300 Baltimore Ave., Beltsville, Md.) and at the blueberry field at Butler's Orchard (22222 Davis Mill Rd, Germantown, Md.). […]
(§3) The preliminary field tests were conducted at the Beltsville Agricultural Research Center during Oct. […] In 2015 and 2016, three additional treatments were formulated: treatment 14 ((2-components, including acetoin (AT) and ethyl octanoate (EO) in 1:1 ratio), treatment 16 (single-component, acetoin (AT)), and treatment 17 (single-component, ethyl octanoate (EO)). The rest of the compounds, including ethanol (EtOH) (10 mL) and acetic acid (AA) (1 mL), were added into drowning water and evaluated as individual attractant or synergistic attractive agent whenever needed. In 2016, ACV (300 mL, Essential Everyday®, 5% acidity, Shoppers Food and Pharmacy, College Park, Md.) and a commercially-available Scentry® SWD lure (Great Lakes IPM Inc., Vestaburg, Mich.) were used as standard lures for SWD attraction activity comparison. […]

Data set [6] has as its system other D. spp. The data set can be described thus: field tests in 2015, baited traps, non-target catch. The format is in vivo. The following applies: EtOH combined with the AT+AA blend; field 2015; FIG. 4. Here is the method: as §2, §3

Regarding `CC(=O)C(C)O` (stereo not shown) [AT, 3-hydroxy-2-butanone], the “attraction against blank control” value in data set [1] (48 h) was “elicited attraction”. Besides, the “attraction against blank control” value in data set [1] (48 h, listed as Acetoin) is “moderate activity”. Moreover, the “attraction of D. suzukii in the field” value in data set [2] is given as “significantly more attractive than EO”. In data set [3], the “time to release 50% (half-life of dispenser, t1/2=0.693/k)” value was approximately 48 h and the first order rate constant k of desorption worked out at 0.316 day⁻¹.
For `CC(C)CCO` [3MB, 3-methyl-1-butanol], in data set [4], the “Mean ± SD (SWD captured)” value was 3.00 ± 1.00c and the “Total no. SWD captured” value was determined as 9.
Turning to `CCCCCCCC(=O)OCC` [EO, ethyl octanoate], in data set [1] (48 h), the “attraction against blank control” value is reported as “most attractive component” and the “D. suzukii that made choice” value is 96%. The “Mean ± SD (D. suzukii captured in tubes)” value in data set [1] (50 μL loading, 5 replicates of 10 flies, 48 h) turned out to be 9.80 ± 0.45a. For the same compound, in data set [1] (50 μL loading, 5 replicates, 50 flies tested in total, 48 h), the Total no. captured is reported as 49. In data set [1] (50 μL loading, N=5), the “effectiveness compared with other treatments” value is given as “captured significantly more D. suzukii than trap vials baited with treatment 1”. Further, in data set [1] (all doses from 0.3 μL to 300 μL, FIG. 3F), the “attraction against blank control, dose response” value is recorded as “Significantly attractive activities”. Also, in data set [2] (field 2015), the “synergistic effect when combined with AA” value is “No synergistic effect”. For the same compound, in data set [2], the “attraction of D. suzukii in the field” value was “did not show any activity at all”. Also, the first order rate constant k of desorption in data set [3] worked out at 0.049 day⁻¹.
Regarding `OCCc1ccccc1` [PE, phenethyl alcohol], in data set [5], the “attraction of D. suzukii in the field” value is given as “did not show any activity”.
As to `CC(=O)O` [AA, acetic acid], in data set [1], the “attraction compared to a blank control” value is “not attractive”. Also, in data set [2], the “attraction of D. suzukii in the field” value is “inactive by itself”.
Consider `CCC(C)CO` (stereo not shown) [2MB, 2-methyl-1-butanol], for which, in data set [4], the “Mean ± SD (SWD captured)” value came out at 1.00 ± 1.00c and the “Total no. SWD captured” value was 3. Further, in data set [1] (48 h), the “attraction against blank control” value is “repellent effect” and the “D. suzukii that made choice” value is 37%.
On to `CCO` [EtOH, ethanol, reference compound], for which, in data set [1], the “attraction compared to a blank control” value is “significantly more attractive”. Besides, the “SWD specificity of the blend” value in data set [2] (ethanol added to blend of AT and AA) is recorded as approximately 30%. The “attraction of D. suzukii in the field” value in data set [2] was “did not show significant activity”. In addition, in data set [6], the “trap catch of non-target Drosophila” value is on record as “attracted significantly more non-target Drosophila”.
Consider `CCOC(C)=O` [EA, ethyl acetate], for which, in data set [5], the “attraction of D. suzukii in the field” value is reported as “not attractive in the field”.
